Results on four molecules are retold here after US4749568A, “Rubradirin treatment of methicillin-resistant staph” (The Upjohn Company, priority 1987, dated 1988).

The test system of one assay is S. aureus UC9213. The assay can be described thus: ED50 determination, mice infected intraperitoneally with S. aureus UC9213. Type of assay: in vivo, Staphylococcus aureus (infected mice, Charles Fisher #1). The note with it: dosed 1 and 5 hr post infection, 10080 min. As to the method:
(§1) Effective Dose50 (ED50) determinations were performed using standard methods. All mice (Charles Fisher #1, 20 g) were given sufficient S. aureus intraperitoneally (IP) to kill 90 to 100% of untreated mice. At least five dosage levels of antibiotics were employed per each ED50 determination. The antibiotic was administered subcutaneous (SQ) or orally at 1 and 5 hr post infection. The mice were monitored for one week with deaths being noted daily. The ED50 values were calculated by probit analysis.
(§2) ^1 The dose of drug in mg/kg of body weight required to protect 50% o
(§3) the infected animals. Drug was dosed one and five hours post infection
(§4) ^2 Paldimycin was dosed SQ.

Assay [1] has as its system Staphylococcus aureus. The assay can be described thus: Susceptibility test of patient isolate. Type of assay: cell-based. The note with it: isolate from patient, Examples 1 to 3. As to the method: It is known to those skilled in the art how to determine which Staphylococcus (aureus or epidermidis) infections are rubradirin-sensitiveand methicillin-resistant by use of standarad susceptibility tests. See, "Dilution Susceptibility Test: agar and macro-broth dilution procedures; Manual of Clinical Microbiology, Third Edition, American Society of Microbiology, 1980, Washington, D.C., p 453-458".
(§5) A 70 kg person has a fever of 103° F. and has symptoms of bacterial pneumonia infection. Standard laboratory tests isolate an organism which is identified as Staphylococcus aureus. […] The patient is given 1000 mg of rubradirin three times daily by mouth. The temperature over a short period goes to 98.6° F. and the clinical symptoms of pneumonia disappear.
(§6) A 60 kg patient has an infection on their arm following a severe burn. They have a 101° F. fever. Standard laboratory tests isolate an organism which is identified as Staphylococcus aureus. […] The patient is treated with a cream containing 3% rubradirin.
A 85 kg person has baceterial endocarditis with a fever of 104° F. Standard laboratory tests isolate an organism which is identified as Staphylococcus aureus. […] The patient is treated with an IV infusion of rubradirin (4.5 mg/ml) at a rate of 60 ml/hr for a dose of 76 mg/kg/day.

The test system of assay [2] is two clinical strains of S. aureus. Particulars: cited from earlier work.
In assay [3] the test system is Staphylococcus aureus. The assay can be described thus: Treatment of patient with bacterial pneumonia (Example 1). It is filed as in vivo, Staphylococcus aureus (human patient). Particulars: 70 kg male, 1000 mg three times daily by mouth. As to the method:
as §5

For the next assay, the system named is S. aureus UC6685. As to the kind of experiment: ED50 determination, mice infected intraperitoneally with S. aureus UC6685. It is filed as in vivo, Staphylococcus aureus (infected mice, Charles Fisher #1). Particulars: dosed 1 and 5 hr post infection, 10080 min. As to the method: as §1, §2, §3, §4
The test system of a further assay is S. aureus UC9271. As to the kind of experiment: ED50 determination, mice infected intraperitoneally with S. aureus UC9271. It is filed as in vivo, Staphylococcus aureus (infected mice, Charles Fisher #1). Particulars: dosed 1 and 5 hr post infection, 10080 min. As to the method: as §1, §2, §3, §4
The subject of assay [4] is Staphylococcus aureus. The assay can be described thus: Topical treatment of patient with infected burn (Example 2). Type of assay: in vivo, Staphylococcus aureus (human patient). The note with it: 60 kg female, cream containing 3% rubradirin. On the procedure: as §6
In assay [5] the test system is Multidrug-resistant staphylococci. Particulars: Orthopedic Clinics of North America 15, 417 (1984); cited from earlier work.

Turning to `COc1ccc2c(O)c(NC(=O)c3cc(O[C@@H]4C[C@](C)([N+](=O)[O-])[C@@H](OC)[C@@H](C)O4)c(O)c(C(=O)O[C@H]4[C@H](O)C(=O)[C@]5(C)CNC6=C(O5)C(=O)c5c(cc(C)c(O)c5C(=O)/C(C)=C\[C@@H]4C)C6=O)n3)c(=O)oc2c1` [Rubradirin, rubradirin], the ED50 was 4.7 mg/kg in the assay on S. aureus UC9213 (SQ); 1.6 mg/kg in the assay on S. aureus UC9213 (oral); 4.7 mg/kg in the assay with S. aureus UC6685 (SQ); 11.1 mg/kg in the assay with S. aureus UC6685 (oral); 23.1 mg/kg in the assay with S. aureus UC9271 (SQ); 141 mg/kg in the assay on S. aureus UC9271 (oral). In the assay on Staphylococcus aureus [1], the “Susceptibility test results of the isolate” value is “susceptible”. Also, the in vitro activity result in assay [2] (two clinical strains resistant to several antibiotics) is listed as “had in vitro activity”. Further, in the assay with Staphylococcus aureus [3], the “clinical symptoms of pneumonia” value is reported as “disappear”. The temperature in the assay on Staphylococcus aureus [3] (fever of 103° F. before) was 98.6 ° F; with Staphylococcus aureus [4] (after 3 days, 101° F. fever before) it was “goes to normal”. Besides, in the assay with Staphylococcus aureus [4], the inflammation entry was “less inflammation”. The “wound infection and healing” value in the assay on Staphylococcus aureus [4] was “the wound is not infected and appears to be healing much better”.
Regarding Paldimycin, the ED50 in the assay with S. aureus UC9213 (SQ) is on record as 12.7 mg/kg; with S. aureus UC6685 (SQ) it was 8.1 mg/kg; in the assay on S. aureus UC9271 (SQ) it was 20.5 mg/kg.
As to `CN[C@H](CC(C)C)C(=O)N[C@H]1C(=O)N[C@@H](CC(N)=O)C(=O)N[C@H]2C(=O)N[C@H]3C(=O)N[C@H](C(=O)N[C@H](C(=O)O)c4cc(O)cc(O)c4-c4cc3ccc4O)[C@H](O)c3ccc(c(Cl)c3)Oc3cc2cc(c3O[C@@H]2O[C@H](CO)[C@@H](O)[C@H](O)[C@H]2O[C@H]2C[C@](C)(N)[C@H](O)[C@H](C)O2)Oc2ccc(cc2Cl)[C@H]1O` [vancomycin], the susceptibility entry in assay [5] is on record as “retained their susceptibility”.
As to `COc1cccc(OC)c1C(=O)N[C@@H]1C(=O)N2[C@@H]1SC(C)(C)[C@@H]2C(=O)O` [methicillin], in the assay with Staphylococcus aureus [1], the “Susceptibility test results of the isolate” value was “resistant”. In addition, in assay [2] (strains originally tested by Bhuyan et al, later study), the “methicillin sensitivity of the strains” value is recorded as “sensitive”.

By ED50 is commonly meant the dose at which the effect has come halfway, by size or by number of responders. Read a low ED50 as an effect at a small dose.
